According to BindingDB's records for doi:10.1021/acs.jmedchem.5b00659 (Taipei Medical University, 2015):

Molecular target: Signal transducer and activator of transcription 3 (Homo sapiens, UniProt P40763)
Experiment: Inhibition of STAT3 tyrosine phosphorylation in human A549 cells by sandwich ELISA method

Sequence of Signal transducer and activator of transcription 3 (P40763 whole entry): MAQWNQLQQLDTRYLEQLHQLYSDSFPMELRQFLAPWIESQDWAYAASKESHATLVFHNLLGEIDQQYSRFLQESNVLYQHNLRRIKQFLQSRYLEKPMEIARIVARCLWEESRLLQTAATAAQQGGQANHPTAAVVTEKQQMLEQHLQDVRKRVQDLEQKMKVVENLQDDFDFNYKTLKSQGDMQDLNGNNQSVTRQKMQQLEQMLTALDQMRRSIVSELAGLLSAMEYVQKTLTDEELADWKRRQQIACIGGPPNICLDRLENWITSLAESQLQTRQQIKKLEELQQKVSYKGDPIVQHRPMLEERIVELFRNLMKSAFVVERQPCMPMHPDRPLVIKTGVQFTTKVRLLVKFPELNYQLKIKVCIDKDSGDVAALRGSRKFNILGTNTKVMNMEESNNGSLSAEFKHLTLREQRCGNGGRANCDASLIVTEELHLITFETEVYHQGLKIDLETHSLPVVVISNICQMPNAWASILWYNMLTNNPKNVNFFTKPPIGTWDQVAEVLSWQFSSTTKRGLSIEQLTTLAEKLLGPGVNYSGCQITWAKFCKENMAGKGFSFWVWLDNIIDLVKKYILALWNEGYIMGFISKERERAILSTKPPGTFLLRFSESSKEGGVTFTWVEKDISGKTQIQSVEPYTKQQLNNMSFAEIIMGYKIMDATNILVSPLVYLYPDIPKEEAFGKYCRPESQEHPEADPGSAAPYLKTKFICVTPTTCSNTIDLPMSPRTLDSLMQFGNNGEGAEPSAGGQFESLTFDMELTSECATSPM

Compound `COc1ccc(S(=O)(=O)Nc2ccccc2-c2ccc(F)c(F)c2)cc1` has an IC50 of 2750 nM.
